Measurements: patent US12378249B2, “Isoquinoline compounds and uses thereof” (Genentech, Inc., priority 2018, dated 2025)
Counter-ions that a name gives are not always drawn.

Each compound was assayed against HPK1 (Homo sapiens (Human), UniProt Q92918, S171E/T165E) (assay: HPK1-FL HTRF Enzymatic Assay (HTRF)). Conditions: HPK full length T165E S171E 0.125 nM, ATP 1 mM, Biotin-SLP76 100 nM, read-out: HPK1 Ki (nM), H = HTRF.
Assay type: biochemical
Method: Exemplary compounds of Formula (I) were tested to assess compound inhibition of HPK-1. The Ki for each exemplary compound was determined
Example B1: HPK1-FL HTRF Enzymatic Assay (“HTRF”)
HPK-FL enzyme phosphorylates Biotin-SLP-76 substrate in the presence of ATP at 1 mM and varying concentrations of test compound. Product is detected by FRET using Eu-anti-pSLP76 Ab and SA-XL665. Also see www.cisbio.com/HTRF for additional HTRF technology information.
• Echo555 compound dispenser • Agilent Bravo • Perkin Elmer Envision Final Assay Conditions:
Materials: • Assay plate: White ProxiPlate 384 F (PerkinElmer cat #6008289) • Kinase: HPK full length double mutant • Substrate: Biotin-SLP76 • ATP: 100 mM ATP • BSG: 2% BSG • DMSO: DMSO (Sigma cat #34869-100ML) • Reaction Buffer: H2O/50 mM HEPES, pH 7.5/10 mM MgCl2/2 mM TCEP/0.01% Brij-35/0.01% BSG • Detection mix:Eu-anti-pSLP76/SA-XL665 (Cisbio, #610SAXAC) Assay Procedure Ki determination:
To a 384 well Proxiplate with 80 nL compound or DMSO spotted on was added 4 μl/well kinase mix. The mixture was preincubated for 30 minutes and then 4 μl/well substrate mix was added. The solution was incubated for 60 min and then 4 μl/well detection mix was added. The solution was incubated for another 60 min. The plates were then loaded onto a Perkin Elmer Envision and the TR-FRET signal was measured at 615 and 665 nm. A ratio of […] was used to calculate the % activity at each concentration of compound.

HPK1, sequence (Q92918 whole entry T165E/S171E): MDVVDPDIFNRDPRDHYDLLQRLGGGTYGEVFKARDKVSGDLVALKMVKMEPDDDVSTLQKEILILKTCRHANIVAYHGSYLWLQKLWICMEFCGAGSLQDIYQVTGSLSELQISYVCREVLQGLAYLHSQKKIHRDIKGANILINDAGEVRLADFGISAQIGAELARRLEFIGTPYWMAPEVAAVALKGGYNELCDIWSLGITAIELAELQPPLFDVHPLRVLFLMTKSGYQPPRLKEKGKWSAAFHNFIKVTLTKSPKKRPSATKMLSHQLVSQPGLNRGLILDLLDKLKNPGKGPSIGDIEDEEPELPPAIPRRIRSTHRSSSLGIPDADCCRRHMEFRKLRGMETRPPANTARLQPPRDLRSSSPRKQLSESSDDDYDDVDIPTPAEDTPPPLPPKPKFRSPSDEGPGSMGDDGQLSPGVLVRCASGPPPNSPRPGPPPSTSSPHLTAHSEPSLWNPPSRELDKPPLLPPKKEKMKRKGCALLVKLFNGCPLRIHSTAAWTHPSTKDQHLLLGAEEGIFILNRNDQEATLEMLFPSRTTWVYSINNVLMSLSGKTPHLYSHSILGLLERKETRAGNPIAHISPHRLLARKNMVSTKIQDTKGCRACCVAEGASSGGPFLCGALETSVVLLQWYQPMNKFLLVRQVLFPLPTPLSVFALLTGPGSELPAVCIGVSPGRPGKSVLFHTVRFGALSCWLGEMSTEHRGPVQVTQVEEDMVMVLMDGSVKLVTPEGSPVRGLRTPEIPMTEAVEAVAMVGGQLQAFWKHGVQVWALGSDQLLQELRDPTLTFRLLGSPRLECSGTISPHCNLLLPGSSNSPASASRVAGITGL

Row | Structure (SMILES) | Ki [nM]
1 | Cc1ncc(-c2cc3cc(Nc4cc5n(n4)CC(=O)N(C(C)C)CC5F)ncc3cc2F)c(C)c1N (racemic) [Compound 150, (+/-)-2-((6-(5-amino-4,6-dimethylpyridin-3-yl)-7-fluoroisoquinolin-3-yl)amino)-4-fluoro-6-isopropyl-5,6-dihydro-4H-pyrazolo[1,5-d][1,4]diazepin-7(8H)-one] | 0.15
2 | Cc1c(N)cncc1-c1cc2cc(Nc3cc4n(n3)Cc3nccn3CC4O)ncc2c(F)c1F (racemic) [Compound 170, (+/−)-8-((6-(5-amino-4-methylpyridin-3-yl)-7,8-difluoroisoquinolin-3-yl)amino)-5,6-dihydro-11H-imidazo[1,2-a]pyrazolo[1,5-d][1,4]diazepin-6-ol] | 0.035
3 | CN1CCc2cc(Nc3cc4cc(-c5cncc6c5CCC6O)c(F)cc4cn3)nn2CC1=O (racemic) [Compound 214, (+/-)-2-((7-fluoro-6-(7-hydroxy-6,7-dihydro-5H-cyclopenta[c]pyridin-4-yl)isoquinolin-3-yl)amino)-6-methyl-5,6-dihydro-4H-pyrazolo[1,5-d][1,4]diazepin-7(8H)-one] | 9
4 | Cc1cc(C2CCCCO2)ncc1-c1cc2cc(Nc3cc4n(n3)CC(=O)N(C)CC4)ncc2cc1F (racemic) [Compound 218, (+/-)-2-((7-fluoro-6-(4-methyl-6-(tetrahydro-2H-pyran-2-yl)pyridin-3-yl)isoquinolin-3-yl)amino)-6-methyl-5,6-dihydro-4H-pyrazolo[1,5-d][1,4]diazepin-7(8H)-one] | 9
5 | Cc1c(-c2cc3cc(Nc4ccn([C@H](C)C#N)n4)ncc3cc2F)cnc2c1NCCO2 (single isomer, unassigned) [Compound 109a, 2-(3-((7-fluoro-6-(8-methyl-2,3-dihydro-1H-pyrido[2,3-b][1,4]oxazin-7-yl)isoquinolin-3-yl)amino)-1H-pyrazol-1-yl)propanenitrile] | 2.17

Now from value to compound:

Row | Ki [nM] | Structure (SMILES)
6 | 0.073 | Cc1c(-c2cc3cc(Nc4cc5n(n4)CC(=O)NCC5)ncc3cc2F)cnc2c1NC(C)CO2 (racemic) [Compound 182, (+/−)-2-((6-(2,8-dimethyl-2,3-dihydro-1H-pyrido[2,3-b][1,4]oxazin-7-yl)-7-fluoroisoquinolin-3-yl)amino)-5,6-dihydro-4H-pyrazolo[1,5-d][1,4]diazepin-7(8H)-one]
7 | 0.018 | Cc1c(-c2cc3cc(Nc4cc5n(n4)CC(=O)NCC5)ncc3cc2F)cnc2c1NCC(C)O2 (racemic) [Compound 184, (+/−)-2-((6-(3,8-dimethyl-2,3-dihydro-1H-pyrido[2,3-b][1,4]oxazin-7-yl)-7-fluoroisoquinolin-3-yl)amino)-5,6-dihydro-4H-pyrazolo[1,5-d][1,4]diazepin-7(8H)-one]
8 | 0.48 | Cc1c(-c2cc3cc(Nc4cc5n(n4)Cc4nccn4CC5)ncc3cc2F)cnc2c1NCC[S+]2[O-] (racemic) [Compound 189, (+/−)-7-(3-((5,6-dihydro-11H-imidazo[1,2-a]pyrazolo[1,5-d][1,4]diazepin-8-yl)amino)-7-fluoroisoquinolin-6-yl)-8-methyl-2,3-dihydro-1H-pyrido[2,3-b][1,4]thiazine 4-oxide]
9 | 2.6 | Cc1c(N)cncc1-c1cc2cc(Nc3cc4n(n3)C[S+]([O-])CC4)ncc2cc1F (racemic) [Compound 191, (+/-)-2-((6-(5-amino-4-methylpyridin-3-yl)-7-fluoroisoquinolin-3-yl)amino)-4,5-dihydro-7H-pyrazolo[1,5-c][1,3]thiazine 6-oxide]
10 | 0.11 | Cc1c(-c2cc3cc(Nc4cc5n(n4)CC(=O)NCC5)ncc3cc2F)cnc2c1NCCC2O (racemic) [Compound 201, (+/-)-2-((7-fluoro-6-(8-hydroxy-4-methyl-5,6,7,8-tetrahydro-1,5-naphthyridin-3-yl)isoquinolin-3-yl)amino)-5,6-dihydro-4H-pyrazolo[1,5-d][1,4]diazepin-7(8H)-one formate salt]
